Literature values, collected in patent US20030199496A1, “Pharmaceutical compositions containing alpha3beta4 nicotinic receptor antagonists and methods of their use” (priority 2002, published 2003).

System: Purkinje nerve cells

COCC[C@H]1CC2CN3CCc4c([nH]c5ccccc45)[C@](C(=O)OC)(C2)[C@H]13 [18-MC, 18-methoxycoronaridine]
neurotoxicity, especially on Purkinje nerve cells (at certain doses): devoid of these undesirable characteristics | tremors (human and animal subjects): devoid of these undesirable characteristics
